Tests used:
Format in all cases: in vivo
Apera spica-venti = experiment: Test Example 4: herbicidal effect by soil treatment (symbol L); conditions: application herbicide amount 320 g/ha
Procedure, shortened: (§1)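 Seeds were sown in sterilized diluvial soil, covered with about 1.5 cm of soil, and the soil surface was sprayed with a water-diluted emulsion of the compound at a predetermined rate. Plants grew in a greenhouse at 25° C. to 30° C.; effects were scored visually 3 weeks after application.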

Chenopodium album = experiment: Test Example 4: herbicidal effect by soil treatment (symbol O)
Excerpt: Herbicidal Effect Test by Soil Treatment
Sterilized diluvial soil was placed in a plastic box having a length of 21 cm, a width of 13 cm, and a depth of 7 cm. Each of the seeds of Digitaria ciliaris, Setaria viridis, Echinochloa crus-galli var. crus-galli, Avena fatua, Alopecurus myosuroides, Lolium multiflorum Lam., Apera spica-venti, Abutilon theophrasti, Amaranthus retroflexus, Chenopodium album, Stellaria media, Galium spurium, Veronica persica, corn, soybean, rice, wheat, beet, and rapeseed was sowed in a spot-like manner and was covered with the soil of a thickness of about 1.5 cm. Subsequently, the emulsion agent of the compound present invention prepared in accordance with Formulation Example 2 was diluted with water so as to be a predetermined herbicide amount and the diluted emulsion agent was uniformly applied to the surface of the soil with a small-size spray. The plastic box was placed in a greenhouse of 25° C. to 30° C. to grow plant. 3 weeks later from the herbicide application, the effect to each plant was investigated in accordance with the criteria of Test Example 1.

transplanted rice plant = experiment: Test Example 1: effect on crop, application before weed generation in submerged conditions (symbol a); conditions: application herbicide amount 320 g/ha
Procedure, shortened: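 Alluvial soil pots flooded to 4 cm water, sown with Echinochloa oryzacola, Scirpus juncoides and Monochoria vaginalis, then transplanted with 2.5 leaf stage rice seedlings; pre-emergence application. Greenhouse 25° C. to 30° C.; scored 0–5 by herbicidal ratio 3 weeks after application.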

Avena fatua = experiment: Test Example 5: herbicidal effect by foliage application, plastic box (symbol I); conditions: 320 g/ha, 3 weeks after application
Procedure, shortened: (§2)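 Effect is rated 3 weeks after a foliar spray of water-diluted emulsion concentrate at a predetermined herbicide amount. Plants had grown 14 days in a 25° C. to 30° C. greenhouse from seed in sterilized diluvial soil.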

[1] = test system: directly sowed rice plant; experiment: Test Example 3: effect on crop by foliage application, Wagner pot (symbol b); conditions: application herbicide amount 320 g/ha; for b (directly sowed rice plant) effect on crop grade: Table 24
Procedure, shortened: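 Plants are raised from seed in flooded paddy conditions: water stands 0.1–0.5 cm over alluvial soil, and the pot is kept in a greenhouse at 25–30 °C. Species sown are barnyardgrass (E. crus-galli var. crus-galli), Leptochloa chinensis, Cyperus difformis and rice.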

Veronica persica = experiment: Test Example 5: herbicidal effect by foliage application, plastic box (symbol R); conditions: 320 g/ha, 3 weeks after application
Procedure, shortened: as §2

soybean [2] = experiment: Test Example 5: effect on crop by foliage application, plastic box (symbol d); conditions: 320 g/ha, 3 weeks after application
Procedure, shortened: (§3)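 Crop seed is sown alongside grass and broadleaf weed species in spots in sterilized diluvial soil, then covered to a depth of about 1.5 cm. Plants grow in a greenhouse kept at 25° C. to 30° C.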

Abutilon theophrasti [3] = experiment: Test Example 5: herbicidal effect by foliage application, plastic box (symbol M); conditions: 320 g/ha, 3 weeks after application
Procedure, shortened: as §2

[4] = test system: Echinochloa oryzacola Vasing.; experiment: Test Example 1: herbicidal activity, application before weed generation in submerged conditions (symbol A); conditions: application herbicide amount 320 g/ha
Procedure, shortened: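 Weeds are sown into submerged alluvial soil alongside transplanted 2.5-leaf rice, and the compound, as an emulsion diluted to a set rate, is applied onto the water before emergence. Rating on the 0–5 herbicidal-ratio scale follows 3 weeks of greenhouse growth at 25–30 °C.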

corn = experiment: Test Example 5: effect on crop by foliage application, plastic box (symbol c); conditions: 320 g/ha, 3 weeks after application
Procedure, shortened: as §3

[5] = test system: Echinochloa crus-galli var. crus-galli; experiment: Test Example 4: herbicidal effect by soil treatment (symbol H); conditions: for Herbicidal effect grade, H: Echinochloa crus-galli var. crus-galli: application herbicide amount 320 g/ha
Procedure, shortened: as §1

Digitaria ciliaris = experiment: Test Example 5: herbicidal effect by foliage application, plastic box (symbol F); conditions: 320 g/ha, 3 weeks after application
Procedure, shortened: as §2

Abutilon theophrasti [6] = experiment: Test Example 4: herbicidal effect by soil treatment (symbol M); conditions: for Herbicidal effect grade, M: Abutilon theophrasti: application herbicide amount 320 g/ha
Procedure, shortened: as §1

soybean [7] = experiment: Test Example 4: effect on crop by soil treatment (symbol d); conditions: for Effect on crop grade, d: soybean: application herbicide amount 320 g/ha
Procedure, shortened: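 Steps: fill box with sterilized diluvial soil; sow seed spot-like; cover with ~1.5 cm soil; grow in greenhouse (25° C. to 30° C.).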

SMILES	Herbicidal effect grade, L: Apera spica-venti (Apera spica-venti)	a (transplanted rice plant) effect on crop grade (transplanted rice plant)	I: Avena fatua, herbicidal effect grade (Avena fatua)	b (directly sowed rice plant) effect on crop grade [1]	R: Veronica persica, herbicidal effect grade (Veronica persica)	d: soybean, effect on crop grade (soybean [2])	M: Abutilon theophrasti, herbicidal effect grade (Abutilon theophrasti [3])	A (Echinochloa oryzacola Vasing.) herbicidal effect grade [4]	c: corn, effect on crop grade (corn)	Herbicidal effect grade, H: Echinochloa crus-galli var. crus-galli [5]	F: Digitaria ciliaris, herbicidal effect grade (Digitaria ciliaris)	Herbicidal effect grade, M: Abutilon theophrasti (Abutilon theophrasti [6])	Effect on crop grade, d: soybean (soybean [7])	also measured
COC(=O)C(C(=O)C1CC1)C1CC(O)=C(c2c(C)cc(Br)cc2C)C1=O (mixture of isomers) [10-002]	3 (Herbicidal ratio of 40% or higher and lower than 70%)	1 (Herbicidal ratio of 5% or higher and lower than 20%)	5 (Herbicidal ratio of 90% or more (almost completely withered))	5 (Herbicidal ratio of 90% or more (almost completely withered))	0 (Herbicidal ratio of 5% or lower (almost no effect))	0 (Herbicidal ratio of 5% or lower (almost no effect))	0 (Herbicidal ratio of 5% or lower (almost no effect))	1 (Herbicidal ratio of 5% or higher and lower than 20%)	5 (Herbicidal ratio of 90% or more (almost completely withered))	4 (Herbicidal ratio of 70% or higher and lower than 90%)	5 (Herbicidal ratio of 90% or more (almost completely withered))	0 (Herbicidal ratio of 5% or lower (almost no effect))	0 (Herbicidal ratio of 5% or lower (almost no effect))	Herbicidal effect grade, O: Chenopodium album (Chenopodium album; application herbicide amount 320 g/ha): 0 (Herbicidal ratio of 5% or lower (almost no effect))
CON=C(CC1CC(O)=C(c2c(C)cc(C)cc2C)C1=O)c1ccc(F)cc1 (stereo not drawn) [1-133]														O: Chenopodium album, herbicidal effect grade (Chenopodium album; 320 g/ha): 0 (Herbicidal ratio of 5% or lower (almost no effect)); Effect grade on crop, a: transplanted rice plant (transplanted rice plant): 1 (Herbicidal ratio of 5% or higher and lower than 20%); I: Avena fatua, herbicidal effect (criteria 0-5) (Avena fatua): 3 (Herbicidal ratio of 40% or higher and lower than 70%); effect on crop b (directly sowed rice plant), grade 0-5 [1]: 0 (Herbicidal ratio of 5% or lower (almost no effect)); R: Veronica persica, herbicidal effect (criteria 0-5) (Veronica persica): 3 (Herbicidal ratio of 40% or higher and lower than 70%); d: soybean, effect on crop (criteria 0-5) (soybean [2]): 3 (Herbicidal ratio of 40% or higher and lower than 70%); M: Abutilon theophrasti, herbicidal effect (criteria 0-5) (Abutilon theophrasti [3]): 0 (Herbicidal ratio of 5% or lower (almost no effect)); Herbicidal effect grade, A: Echinochloa oryzacola Vasing. [4]: 4 (Herbicidal ratio of 70% or higher and lower than 90%); c: corn, effect on crop (criteria 0-5) (corn): 0 (Herbicidal ratio of 5% or lower (almost no effect)); H: Echinochloa crus-galli var. crus-galli, herbicidal effect grade ([5]; 320 g/ha): 4 (Herbicidal ratio of 70% or higher and lower than 90%); F: Digitaria ciliaris, herbicidal effect (criteria 0-5) (Digitaria ciliaris): 0 (Herbicidal ratio of 5% or lower (almost no effect)); M: Abutilon theophrasti, herbicidal effect grade (Abutilon theophrasti [6]; 320 g/ha): 0 (Herbicidal ratio of 5% or lower (almost no effect)); d: soybean, effect grade on crop (soybean [7]; 320 g/ha): 4 (Herbicidal ratio of 70% or higher and lower than 90%)
COCCON=C(C)CC1CC(O)=C(c2c(C)cc(Br)cc2C)C1=O (stereo not drawn) [9-017]	0 (Herbicidal ratio of 5% or lower (almost no effect))	4 (Herbicidal ratio of 70% or higher and lower than 90%)	4 (Herbicidal ratio of 70% or higher and lower than 90%)	5 (Herbicidal ratio of 90% or more (almost completely withered))	0 (Herbicidal ratio of 5% or lower (almost no effect))	0 (Herbicidal ratio of 5% or lower (almost no effect))	0 (Herbicidal ratio of 5% or lower (almost no effect))	4 (Herbicidal ratio of 70% or higher and lower than 90%)	5 (Herbicidal ratio of 90% or more (almost completely withered))	0 (Herbicidal ratio of 5% or lower (almost no effect))	4 (Herbicidal ratio of 70% or higher and lower than 90%)	0 (Herbicidal ratio of 5% or lower (almost no effect))	0 (Herbicidal ratio of 5% or lower (almost no effect))	
COCCON=C(CC1CC(O)=C(c2c(C)cc(Br)cc2C)C1=O)C1CC1 (stereo not drawn) [9-019]	0 (Herbicidal ratio of 5% or lower (almost no effect))	4 (Herbicidal ratio of 70% or higher and lower than 90%)	4 (Herbicidal ratio of 70% or higher and lower than 90%)	5 (Herbicidal ratio of 90% or more (almost completely withered))	0 (Herbicidal ratio of 5% or lower (almost no effect))	0 (Herbicidal ratio of 5% or lower (almost no effect))	0 (Herbicidal ratio of 5% or lower (almost no effect))	4 (Herbicidal ratio of 70% or higher and lower than 90%)	5 (Herbicidal ratio of 90% or more (almost completely withered))	0 (Herbicidal ratio of 5% or lower (almost no effect))	4 (Herbicidal ratio of 70% or higher and lower than 90%)	0 (Herbicidal ratio of 5% or lower (almost no effect))	0 (Herbicidal ratio of 5% or lower (almost no effect))	
COCCON=C(CC1CC(O)=C(c2c(C)cc(-n3cc(Cl)cn3)cc2C)C1=O)C1CC1 (stereo not drawn) [9-020]	4 (Herbicidal ratio of 70% or higher and lower than 90%)	5 (Herbicidal ratio of 90% or more (almost completely withered))	5 (Herbicidal ratio of 90% or more (almost completely withered))	5 (Herbicidal ratio of 90% or more (almost completely withered))	3 (Herbicidal ratio of 40% or higher and lower than 70%)	1 (Herbicidal ratio of 5% or higher and lower than 20%)	4 (Herbicidal ratio of 70% or higher and lower than 90%)	5 (Herbicidal ratio of 90% or more (almost completely withered))	5 (Herbicidal ratio of 90% or more (almost completely withered))	0 (Herbicidal ratio of 5% or lower (almost no effect))	5 (Herbicidal ratio of 90% or more (almost completely withered))	3 (Herbicidal ratio of 40% or higher and lower than 70%)	0 (Herbicidal ratio of 5% or lower (almost no effect))	
